Melting point data for 109 compounds are collected here from a melting point compilation (Tetko et al.).

Each structure is given as a SMILES string.

As for `N#C/C(=N/Nc1ccccc1)c1nc(-c2ccccc2)cs1`, the melting point (usually the temperature of the solid-liquid transition) was determined as 175 °C.

Take `C=CCCCCCCCCCCCCCCCCC1CC(=O)OC1=O` (centres undefined): the melting point is 67.2 °C.

In the case of `Cc1ccc(N=CN(C)C=Nc2ccc(C)cc2C)c(C)c1`, the melting point came to 86 °C.

`O=C(O)Cc1cccnc1` yielded a melting point of 144 °C.

`CC(C)CCCC(C)C1CCC2C3CC(=O)C4CC(O)CCC4(C)C3CCC12C` (centres undefined) came in with a melting point of 140 to 142 °C.

With `O=C1CCc2ccc(O)cc2N1`, the melting point was 232 °C.

As for `O=C(Nc1cccc(Cl)c1)OCC#CCCl`, the melting point came to 75 °C.

In turn, `O=S1(=O)CC(O)C(Br)C1` (centres undefined) came in with a melting point of 190 to 192 °C.

`NS(=O)(=O)c1ccc(SCCCCO)c(F)c1` showed a melting point of 104 °C.

As for `COC(=O)Nc1nc2ccccc2[nH]1`, the melting point came out at 305 °C.

Compound `O=c1c2cc(F)ccc2nc(-n2cncn2)n1-c1ccc(Cl)cc1Cl` displayed a melting point of 192 °C.

Compound `O=C(NC(Cc1ccc(Br)s1)C(=O)O)OCC1c2ccccc2-c2ccccc21` (centres undefined) displayed a melting point of 158 °C.

`COc1cc(C(c2ccc(C)o2)c2ccc(C)o2)c(O)cc1[N+](=O)[O-]` came in with a melting point of 104 °C.

In the case of `C/C=C/C(=O)N1C(=O)OC[C@@H]1Cc1ccccc1`, the melting point fell in the range of 84 to 85 °C.

In the case of `CNCC(O)c1ccc(O)cc1` (centres undefined), the melting point amounted to 184 °C.

In turn, `N#Cc1ccc(-c2nccs2)cc1` registered a melting point of 102 to 103 °C.

As to `O=C1OC(=O)C2=C1Cc1cc3c(cc1C2)CC3`, the melting point was found to be 254 °C.

For the compound `Clc1cccc(CBr)c1Cl`, the melting point fell in the range of 29 to 32 °C.

Compound `O=S(=O)(Cl)Cc1ccc(F)cc1` yielded a melting point of 61 to 63 °C.

The compound `Nc1cccc(Oc2ccccn2)c1` had a melting point of 76 to 78 °C.

As for `FC(F)(F)c1cc(P(c2cc(C(F)(F)F)cc(C(F)(F)F)c2)c2cc(C(F)(F)F)cc(C(F)(F)F)c2)cc(C(F)(F)F)c1`, the melting point is 100 °C.

The compound `O=C(O)c1cc2ccccc2[nH]1` came in with a melting point of 206 °C.

For the compound `N#Cc1ccc(F)cc1[N+](=O)[O-]`, the melting point lay in the range of 71 to 73 °C.

`CC12CCC(/C(=C3/OC(C4C(=O)C5(C)CCC4C5(C)C)C3=O)C1=O)C2(C)C` (centres undefined): the melting point worked out at 196 °C.

`COC(=O)c1ccc(CC(C#N)(Cc2ccc(C(=O)OC)cc2)c2ccc(CC(C)C)cc2)cc1` yielded a melting point of 115 °C.

`Cc1cc(N)cc(C)n1` yielded a melting point of 192 °C.

`CCCCCCCCCCCCCCCCCN` returned a melting point of 49 °C.

For the compound `Cc1ccc2c(C)cccc2c1C`, the melting point came to 33.5 °C.

With `CCOC(=O)C1Cc2cc3c(cc2NC1=O)NC(=O)C(C(=O)OCC)C3` (centres undefined), the melting point came to 242 °C.

`O=C(O)c1cccnc1Br` yielded a melting point of 254 °C.

Compound `CCOC(=O)c1ccc2c(c1)OCO2` displayed a melting point of 18.5 °C.

As for `Cc1nc(/C(C#N)=C/c2ccco2)sc1/N=N/c1c(Cl)cc(Cl)cc1Cl`, the melting point stood at 156 °C.

On to `O=C(O)c1nnn(Cc2ccccc2)c1C(=O)O`, for which the melting point came to 180 °C.

In turn, `O=C(O)c1cc(Cl)c(Cl)c(Cl)c1Cl` returned a melting point of 194 °C.

The compound `COc1ccc(N/C=C2\C(=O)C3(C)CCC2C3(C)C)cc1` (centres undefined) showed a melting point of 171 °C.

For `COc1ccc(C2Nn3c(nnc3-c3ccccc3OC)S2)cc1` (centres undefined), the melting point was 203 to 204 °C.

`CCOC(=O)C1(c2ccccc2)CCN(C)CC1` came in with a melting point of 270 °C.

Compound `CC1(C)OC2C(=O)OC(CBr)C2O1` (centres undefined) yielded a melting point of 85 to 89 °C.

For `O=C(O)C#Cc1cccc(C#CC(=O)O)c1`, the melting point stood at 209 °C.

Compound `CNC(=O)CSP(=O)(OC)OC` showed a melting point of -28 °C.

`Cc1csc2nc3ccccc3n12`: the melting point was 161 to 163 °C.

`O=C(OOC(=O)c1ccc(Cl)cc1Cl)c1ccc(Cl)cc1Cl` registered a melting point of 106 °C.

The compound `O=C(CBr)c1ccc(Cl)c(Cl)c1` showed a melting point of 57 °C.

For `C=C(C)C1CCC(C)=CC1c1c(O)cc(CCCCC)cc1O` (centres undefined), the melting point is 67 °C.

Regarding `Cc1ccc(-c2ccc(S(=O)(=O)Cl)cc2)cc1`, the melting point lay within 107 to 108 °C.

In turn, `CC(C)Nc1cccnc1N1CCN(C(=O)c2cc3cc(NS(C)(=O)=O)ccc3[nH]2)CC1` had a melting point of 226 °C.

In turn, `O=[N+]([O-])c1cc(-c2ccc(O)cc2)ccc1O` returned a melting point of 182 °C.

Turning to `COc1cc(Cl)ccc1CO`, the melting point is 47 °C.

Regarding `CN(C)c1ccc(N=Nc2ccc([N+](=O)[O-])cc2)cc1`, the melting point stood at 236 °C.

The compound `N=c1oc2ccccc2cc1-c1nc2ccccc2c(=O)[nH]1` gave a melting point of 275 °C.

As for `FC(F)(Br)C(F)(F)C(F)(F)C(F)(F)C(F)(F)C(F)(F)C(F)(F)C(F)(F)Br`, the melting point amounted to 40 °C.

Regarding `N#Cc1cccc(F)n1`, the melting point turned out to be 34 °C.

`CCO[Si](Cl)(Cl)OCC` had a melting point of -130 °C.

`Cc1c(N=C=O)cnn1-c1ccccc1` showed a melting point of 56 to 60 °C.

`CCP(CC)CC` showed a melting point of -88 °C.

`CC/C=C/CCO`: the melting point was -61.5 °C.

Regarding `COc1cc(C(=O)OCc2cccc(COC(=O)c3cc(OC)c(OC)c(OC)c3)n2)cc(OC)c1OC`, the melting point is 119 °C.

As for `CC(=O)c1cc(O)ccc1O`, the melting point worked out at 206 °C.

`Cc1nc2cc([N+](=O)[O-])ccc2s1`: the melting point was determined as 133 °C.

With `Cc1cc(C(F)(F)F)c(C#N)c(=O)[nH]1`, the melting point was in the range of 233 to 235 °C.

For `O=[N+]([O-])c1ccc(-c2nnc3sc(/C=C/c4ccccc4)nn23)cc1`, the melting point was in the range of 112 to 114 °C.

As for `Cc1nccn1-c1ccccc1CN`, the melting point lay within 48 to 48.5 °C.

In turn, `N#Cc1ccccc1Oc1ccc(Cl)cc1Cl` gave a melting point of 84 to 86 °C.

Turning to `CC(C)(CO)C(O)C(=O)NCCCO` (racemic), the melting point amounted to 68 °C.

Turning to `Cc1ccc(C)c2c1C(=O)OC2=O`, the melting point was 195 °C.

In the case of `CC(O)CCc1ccc2c(c1)N(C(=O)c1ccccc1)C(C)CC2` (centres undefined), the melting point came out at 77 °C.

The compound `Cc1ccc(-n2c(-c3cccnc3)noc2=S)cc1` yielded a melting point of 159 °C.

As for `C=CCOC(=O)CCC`, the melting point was -80 °C.

Compound `CC(CCC(O)(c1ccccc1)c1ccccc1)C1CCC2C3C(O)CC4CC(O)CCC4(C)C3CC(O)C12C` (centres undefined) gave a melting point of 162 to 170 °C.

Consider `Cc1cc(C)c2c(N)n[nH]c2n1`, for which the melting point worked out at 280 °C.

In turn, `COC(=O)CC(=O)c1cccnc1` returned a melting point of 34 to 42 °C.

The compound `O=Cc1ccc(-c2ccc(C(F)(F)F)cc2Cl)o1` returned a melting point of 86 to 87 °C.

Turning to `CCCC(CC(OCC)OCC)OCC` (centres undefined), the melting point is -100 °C.

On to `O=C(CBr)c1ccc(OC(F)F)cc1`, for which the melting point fell in the range of 63 to 65 °C.

Consider `CCCCCCCCCCCCCCCC(=O)Oc1c[nH]c2ccc(Br)c(Cl)c12`, for which the melting point was in the range of 53 to 57 °C.

Turning to `CC(C)(C)[Si](C)(C)ON`, the melting point was found to be 64 °C.

As for `COC(=O)CC[C@@H](C)[C@H]1CC[C@H]2[C@@H]3C(=O)C[C@@H]4CCCC[C@]4(C)[C@H]3CC[C@]12C`, the melting point was found to be 92.9 °C.

Compound `CC(=O)C1(O)CCC2(C)C(CCC3C4CCC(=O)C4(C)CCC32)C1` (centres undefined) showed a melting point of 211 to 212 °C.

`COc1cc(C(=O)Nc2nnc(-c3ccc(Cl)cc3)o2)cc(OC)c1OC` registered a melting point of 261 to 263 °C.

As to `Cc1c(C)c(Br)c(Br)c(Br)c1Br`, the melting point came to 262 °C.

Compound `CCOC(=O)N1CCc2cc(OC)c(OC)cc2C1C#N` (centres undefined) yielded a melting point of 110 to 112 °C.

As to `N#CC1=C(N)Oc2[nH]nc(C(F)(F)F)c2C1c1ccc(Cl)cc1Cl` (centres undefined), the melting point was 199 °C.

`CCCCCCCC(=O)c1ccc(NC(C)=O)cc1` yielded a melting point of 123 °C.

In the case of `NNC(=O)C1CCCCC1`, the melting point fell in the range of 153 to 155 °C.

Turning to `O=C(O)c1cc(C(F)(F)F)ccc1C(F)(F)F`, the melting point was found to be 79 °C.

With `Cc1cc(I)c(C)cc1I`, the melting point is 103 to 104 °C.

Take `CCCCCCCCCCCCCCCC(=O)CC`: the melting point was 51 °C.

As to `Nc1c(Cl)cc(C(F)(F)F)cc1[N+](=O)[O-]`, the melting point lay in the range of 66 to 68 °C.

In the case of `CCCCCCCCCCCCOC(=O)c1ccc(N)cc1`, the melting point was determined as 82 °C.

Compound `O=C1CCc2cccc(O)c2C1` came in with a melting point of 156 to 157 °C.

`O=[N+]([O-])C=Cc1ccc2c(c1)OCO2` returned a melting point of 159 to 163 °C.

`OCc1cccc2cccc(Br)c12` returned a melting point of 89 to 90 °C.

In turn, `CC12CCC(O)(CC1)CC2=O` returned a melting point of 55 to 56 °C.

On to `O=C(C(=O)c1cccs1)c1cccs1`, for which the melting point is 82.5 °C.

`Cc1csc(C(=O)NN)c1Cl` showed a melting point of 130 to 132 °C.

For `COCC(C)c1c(O)c2c(c(OC)c1OC)C1(C)CCCC(C)(C)C1C(=O)C2=O` (centres undefined), the melting point fell in the range of 90 to 92 °C.

`Cc1cc(Cl)nnc1Cl` came in with a melting point of 87 °C.

Compound `C#CC(C)(CC)OC(N)=O` (centres undefined) returned a melting point of 55.8 °C.

`CC(=O)SCC(Cc1ccccc1)C(=O)NCC(=O)OCc1ccccc1` (centres undefined) yielded a melting point of 89 °C.

For `CC(C)N(C=O)C(C)C`, the melting point is 10 to 11 °C.

Compound `Cc1nc2ccccc2n1CCc1nnc(S)n1N=Cc1ccccc1Cl` had a melting point of 250 °C.

With `CC(C)(C)c1cc(N)c(O)c(C(C)(C)C)c1`, the melting point worked out at 161 °C.

As for `O=Cc1ccc(F)cc1Cl`, the melting point was 62 °C.

Compound `Fc1ccc2[nH]ccc2c1` gave a melting point of 45 °C.

Consider `CC(C)(C)OC(=O)N1CCN(c2ccc(CN)cc2)CC1`, for which the melting point lay within 83 to 87 °C.

As to `CNCCc1c[nH]c2ccccc12`, the melting point amounted to 88 °C.

Compound `O=CC(O)C1OC(=O)C(O)C1O` (centres undefined) registered a melting point of 178 °C.

The compound `Cc1cc(N=Nc2ccccc2)c(C(C)C)cc1[N+]([O-])=Nc1ccccc1` registered a melting point of 118 °C.

On to `Cc1nc(NC(=N)N)sc1Br`, for which the melting point lay in the range of 203 to 205 °C.
